This is an account of results in patent US20230270764A1, “COMPOSITION COMPRISING CANNABINOIDS, TERPENES, AND FLAVONOIDS FOR TREATING DEPRESSION” (priority 2020, published 2023).

Each structure is given as a SMILES string.

The test system of test [1] is BV2 microglial cells. Kind of test: Poly I:C-induced IL-6 release by BV2 microglia. Format: cell-based, murine. The note with it: 10 µM. On the procedure: The BV2 cells are cultured at 37° C. in a humidified atmosphere with 5% CO2 in high D-glucose (4.5 g/L) Dulbecco’s modified Eagle’s medium (Sigma, Rehovot, Israel) supplemented with 5% heat-inactivated fetal bovine serum, streptomycin (100 µg/ml), and penicillin (100 units/ml) and sodium pyruvate (1 mM; all from Biological Industries Ltd., Kibbutz Beit Haemek, Israel). 24 hours before experiments with LPS stimulation, the BV2 cells are split into 24 well plates, 2×10^5 cells per well, covered with 1 ml of growth medium and allowed to attach overnight. 24 hr before experiments with α-synuclein, the BV2 cells are split into 96-well plates, 50,000 (5×10^4) cells per well, covered with 200 µl of growth medium and allowed to attach overnight. […]

In test [2] the test system is BV2 microglial cells. In words: LPS-induced IL-6 release by BV2 microglia cell cultures (ELISA). Format: cell-based, murine. The note with it: for IC50: Mus musculus. On the procedure:
The BV2 murine microglial cell line is used in these studies.
(§1) The BV2 cells are cultured at 37° C. in a humidified atmosphere with 5% CO2 in high D-glucose (4.5 g/L) Dulbecco’s modified Eagle’s medium (Sigma, Rehovot, Israel) supplemented with 5% heat-inactivated fetal bovine serum, streptomycin (100 µg/ml), and penicillin (100 units/ml) and sodium pyruvate (1 mM; all from Biological Industries Ltd., Kibbutz Beit Haemek, Israel). 24 hours before experiments with LPS stimulation, the BV2 cells are split into 24 well plates, 2×10^5 cells per well, covered with 1 ml of growth medium and allowed to attach overnight. 24 hr before experiments with α-synuclein, the BV2 cells are split into 96-well plates, 50,000 (5×10^4) cells per well, covered with 200 µl of growth medium and allowed to attach overnight. Cultures of BV2 microglia cells are first treated by an individual cannabinoid, or terpene or flavonoid selected from: Cannabidiol (CBD), Δ-9-tetrahydrocannabinol (THC), Δ-8-tetrahydrocannabinol (THC), cannabigerol (CBG), cannabichromene (CBC), cannabigerolic acid (CBGA), Cannabidiolic acid (CBDA), THC acid (THCA), cannabichromenic Acid (CBCA), Cannabidivarin (CBDV), tetrahydrocannabivarin (THCV), Cannabichromevarin (CBCV), Cannabichromerocin ([…]), Cannabivarin (CBV), Cannabicitran (CBT), Cannabinol (CBN), Cannabicyclol (CBL), Cannabigerorcin (CBGO), Cannabinodiol (CBND), β-caryophyllene, β-elemene, β-myrcene, linalool, α-pinene, β-pinene, eucalyptol, alpha-terpineol, valencene, geraniol (lemonol), bisabolol, nerolidol, ocimene, terpinolene, humulene, α-terpinene, camphene, fenchol, α-phellandrene, Δ3-carene, γ-cardinene, sabinene, limonene, β-amyrin, cycloartenol, cannflavin A, cannflavin B, kaempferol, quercetin, luteolin, apigenin, canniprene, orientin, β-sitosterol, vitexin, isovitexin, and chrysin. Additional cultures of BV2 microglia cells are treated by an individual cannabinoid, with at least one additional cannabinoid, and/or terpene, and/or flavonoid, and/or celecoxib. Additional cultures are exposed to the vehicle of these compounds (cremophor, ethanol and PBS, 1:1:18 (v/v/v)) (FIG. 2A). In some studies, cultures of BV2 microglia cells are treated by a specific whole plant cannabis extract, with or without supplementation with cannabinoid(s), and/or terpene(s) and/or flavonoid(s), and/or celecoxib (FIG. 2B).
(§2) For each individual cannabinoid mentioned above, 3-4 concentrations are used, ranging from 0.1 to 10 µM. For ultra-low dose Δ9-THC the concentration used is 0.01 µM. For each individual terpene or flavonoid mentioned above, 3-4 concentrations are used, ranging from 1 to 50 µM. For celecoxib, 3-4 concentrations are used, ranging from 0.1 to 10 µM. Two hours following the treatment, the cultures are exposed to one of the following microglia stimulators: LPS (Sigma L2630; Escherichia coli serotype O111:B4) is dissolved in D-PBS (Sigma, D8537) to a pre-stock concentration of 1 mg/ml, aliquoted and stored at -80° C. Stock solution of LPS at 10 ug/ml is prepared using sterile D-PBS, followed by filtering via 0.22 µm filter membrane, aliquoting and storing in -20° C. LPS is applied into the cell medium at a final concentration of 100 ng/ml. Poly I:C (Sigma, P1530) was first dissolved in sterile, molecular grade water to the concentration of 10 mg/ml (following the manufacturer’s instructions). This stock solution was further diluted to the concentration of 1 mg/ml in sterile PBS, and the aliquots stored in -20 °C.
(In general: An ELISA detects its analyte on a solid surface through an enzyme-linked reagent.)

The subject of test [3] is treatment-resistant major depression patients. Kind of test: Clinical trial of celecoxib plus CBD in treatment-resistant major depression patients. The class given is in vivo, human. The note with it: celecoxib or CBD, each by itself.
Method: In the current study, the antidepressant effect of a combination of celecoxib and CBD is tested in a randomized, prospective, double-blind clinical trial in 80 treatment-resistant major depression patients of both genders, in the age range of 23-70 years. […] The safety and efficacy of celecoxib, CBD and their combination vs. vehicle placebo are assessed. Primary endpoints include the changes from baseline to post-treatment in overall depression levels, and particularly in the vegetative and somatic symptoms of depression, which are highly associated with the inflammatory status of the patients. Secondary endpoints include the changes from baseline to post-treatment in anxiety levels, overall functioning and clinical impression, as well as anhedonia.
Treatment-resistant depressed patients undergo psychological assessment using the Montgomery-Asberg Depression Rating Scale (MADRS), with further analysis of the 3 specific factors of this scale (vegetative symptoms, dysphoria, and retardation), the Somatic Symptoms Scale-8, the Hamilton Anxiety Rating Scale (HARS), the Clinical Global Improvement and Severity Scales (CGI-I and CGI-S), and the Snaith-Hamilton Pleasure Scale (SHAPS). Subjects are treated twice daily (per os) with either a formulation containing celecoxib and CBD or with vehicle placebo. […]
The test system of test [4] is BV2 microglial cells. Kind of test: α-synuclein-induced TNFα secretion by BV2 microglia cell cultures. The class given is cell-based, murine. As for the experimental part: as §1
as §2, with “°C. […] To induce oligomerization, α-Synuclein solution is placed for 24 hours on a shaker with agitation of 80 rpm and at 37° C.” for “°C.”

As to `C=C(C)[C@@H]1CCC(C)=C[C@H]1c1c(O)cc(CCCCC)cc1O` [CBD, cannabidiol], the “Poly I:C-induced IL-6” value in the test with BV2 microglial cells [1] is on record as “markedly decreased”. For the same compound, the “release of IL-6” value in the test on BV2 microglial cells [2] (Example 3, 10 µM) was “significantly inhibited”. The “IL-6 secretion vs Veh plus LPS” value in the test on BV2 microglial cells [2] (Example 6, CBD or CBDV given by themselves) is reported as “no significant effect”. Besides, the “LPS-induced IL-6 release” value in the test on BV2 microglial cells [2] (Example 25, CBD, CannA, CannB 5 and 10 µM, CannC 10 µM) is recorded as “significantly decreased”. Further, the concentration for half-maximal inhibition (IC50) in the test with BV2 microglial cells [2] (BV-2, Example 6 (FIG. 7D), by itself, read-out: IC50 for inhibiting LPS-induced IL-6 release) was 4.3 µM; in the test with BV2 microglial cells [2] (BV-2, Example 6, addition of 1 µM CBDV, read-out: CBD IC50, LPS-induced IL-6 release) it was 3.1 µM; with BV2 microglial cells [2] (BV-2, Example 6, addition of 2.5 µM CBDV, read-out: CBD IC50, LPS-induced IL-6 release) it was 2 µM; with BV2 microglial cells [2] (BV-2, Example 6, addition of 5 µM CBDV, read-out: CBD IC50, LPS-induced IL-6 release), 1.7 µM; in the test on BV2 microglial cells [2] (BV-2, Example 25 (FIG. 25E), extracts calculated on dominant cannabinoid, read-out: IC50 for IL-6 inhibition) it was 5.9 µM; in the test with BV2 microglial cells [4] (Mus musculus, BV-2, read-out: IC50, α-synuclein-induced TNFα release, Example 8 (FIG. 9B), by itself), 5.1 µM. Further, in test [3], the “changes in depression, anxiety, anhedonia and subjective improvement” value is reported as “only mild changes”. In addition, the “secretion of TNFα in cells incubated with α-synuclein aggregates/fibrils” value with BV2 microglial cells [4] (Example 3, 10 µM) is recorded as “reduced”. In the test with BV2 microglial cells [4] (Example 8, CBD by itself 1, 2.5 or 5 µM), the “release of TNFα by microglia incubated with α-synuclein aggregates/fibrils” value was “neither CBD (1, 2.5, or 5 µM) nor celecoxib (1 or 2.5 µM) by themselves affected the release of TNFα”.

One may read the IC50 as the midpoint of a concentration-inhibition curve.
